Patent US9708272B2, “Inhibitors of α-amino-β-carboxymuconic acid semialdehyde decarboxylase” (TES Pharma S.r.l., priority 2014, dated 2017)

Experiments:
AML-12 cells = test: Cytotoxicity (LDH release, ATP level) in AML-12 cells; format: cell-based, mouse; conditions: 10 nM to 300 μM; 4 hrs; DMSO 1%
Method: (§1) HePG2 and AML-12 cells are seeded and a dose-response of the compound is performed at various concentrations. Cells are stimulated and the supernatant is used to perform LDH release as a measure of necrosis while the cells are lysed to detect ATP levels for determining cell viability.
(§2) Cytotoxicity: 20000 HePG2 and AML-12 cells were seeded in 96 well plate (Viewplate PerkinElmer). Dose-response of the compound in Table 2 was performed using HP D300 digital dispenser, ranging from 10 nM to 300 μM with constant DMSO 1% in medium. Cells were stimulated for 4 hrs at 37° C.; the supernatant was used to perform LDH release (Cytotox-one, Promega) as a measure of necrosis while the cells were lysed to detect ATP level for determining cell viability (Celltiter-glo, Promega) according to manufacturer's instructions.

HePG2 cells = test: Cytotoxicity (LDH release, ATP level) in HePG2 cells; format: cell-based; conditions: 10 nM to 300 μM; 4 hrs; DMSO 1%
Method: as §1, §2

hERG potassium channel = hERG potassium channel (Homo sapiens (Human), UniProt Q12809); test: Predictor hERG assay, fluorescence polarization tracer displacement; conditions: hERG channel affinity binding; DMSO 1%
Excerpt: The Predictor hERG assay kit is stably transfected with hERG potassium channel and a high-affinity red fluorescent hERG channel ligand and is used for the determination of hERG channel affinity binding of compounds of Formula (I), Formula (Ia), Formula (Ib), Formula (II), or Formula (III), or a pharmaceutically acceptable salt thereof. Compounds that bind to the hERG channel protein (competitors) are identified by their ability to displace the tracer which results in a lower fluorescence polarization.
The Predictor hERG assay kit (Invitrogen), containing membrane preparations from Chinese hamster ovary cells stably transfected with hERG potassium channel and a high-affinity red fluorescent hERG channel ligand (tracer), was used for the determination of hERG channel affinity binding of the test compounds in Table 2. Compounds that bind to the hERG channel protein (competitors) were identified by their ability to displace the tracer, resulting in a lower fluorescence polarization. The final concentration of DMSO in each well was maintained at 1%. The assays were performed according to the manufacturer's protocol (Invitrogen).

Caspase 3/7 = test: Modulation of caspase 3/7 activity in MDCK cells injured with cisplatin; format: cell-based
Method: MDCK cells are cultured in base medium to a final concentration of 10%. Cells are plated into 96 wells and 24 hours after cell plating the medium is changed with fresh medium supplemented with 1% FBS. Cisplatin is then used to induce cell injury. Different concentrations of Formula (I), Formula (Ia), Formula (Ib), Formula (II), or Formula (III), or a pharmaceutically acceptable salt thereof (in DMSO) are added in combination with cisplatin or prior to adding cisplatin. Caspase 3/7 activity (Promega) is determined according to standard procedures using a luminescent signal readout on a plate reader. Each experiment/condition is performed in triplicate. Caspase activity is analyzed as percentage effect normalized to the cisplatin alone and vehicle treated cells.
MDCK cells (MDCK (NBL-2) ATCC® CCL-34™) were cultured in base medium ATCC-formulated Eagle's Minimum Essential Medium, Catalog No. 30-2003 with fetal bovine serum (FBS) to a final concentration of 10%. […]
Caspase 3/7 activity (Promega) was determined according to standard procedures using a luminescent signal readout on a Victor V plate reader (PerkinElmer). […]
Caspase activity was analyzed as percentage effect normalized to the cisplatin alone (100%) and vehicle treated cells as 0% of caspase activity. Data were analyzed by GraphPad Software. […]

Chain of hERG potassium channel (Q12809 whole entry): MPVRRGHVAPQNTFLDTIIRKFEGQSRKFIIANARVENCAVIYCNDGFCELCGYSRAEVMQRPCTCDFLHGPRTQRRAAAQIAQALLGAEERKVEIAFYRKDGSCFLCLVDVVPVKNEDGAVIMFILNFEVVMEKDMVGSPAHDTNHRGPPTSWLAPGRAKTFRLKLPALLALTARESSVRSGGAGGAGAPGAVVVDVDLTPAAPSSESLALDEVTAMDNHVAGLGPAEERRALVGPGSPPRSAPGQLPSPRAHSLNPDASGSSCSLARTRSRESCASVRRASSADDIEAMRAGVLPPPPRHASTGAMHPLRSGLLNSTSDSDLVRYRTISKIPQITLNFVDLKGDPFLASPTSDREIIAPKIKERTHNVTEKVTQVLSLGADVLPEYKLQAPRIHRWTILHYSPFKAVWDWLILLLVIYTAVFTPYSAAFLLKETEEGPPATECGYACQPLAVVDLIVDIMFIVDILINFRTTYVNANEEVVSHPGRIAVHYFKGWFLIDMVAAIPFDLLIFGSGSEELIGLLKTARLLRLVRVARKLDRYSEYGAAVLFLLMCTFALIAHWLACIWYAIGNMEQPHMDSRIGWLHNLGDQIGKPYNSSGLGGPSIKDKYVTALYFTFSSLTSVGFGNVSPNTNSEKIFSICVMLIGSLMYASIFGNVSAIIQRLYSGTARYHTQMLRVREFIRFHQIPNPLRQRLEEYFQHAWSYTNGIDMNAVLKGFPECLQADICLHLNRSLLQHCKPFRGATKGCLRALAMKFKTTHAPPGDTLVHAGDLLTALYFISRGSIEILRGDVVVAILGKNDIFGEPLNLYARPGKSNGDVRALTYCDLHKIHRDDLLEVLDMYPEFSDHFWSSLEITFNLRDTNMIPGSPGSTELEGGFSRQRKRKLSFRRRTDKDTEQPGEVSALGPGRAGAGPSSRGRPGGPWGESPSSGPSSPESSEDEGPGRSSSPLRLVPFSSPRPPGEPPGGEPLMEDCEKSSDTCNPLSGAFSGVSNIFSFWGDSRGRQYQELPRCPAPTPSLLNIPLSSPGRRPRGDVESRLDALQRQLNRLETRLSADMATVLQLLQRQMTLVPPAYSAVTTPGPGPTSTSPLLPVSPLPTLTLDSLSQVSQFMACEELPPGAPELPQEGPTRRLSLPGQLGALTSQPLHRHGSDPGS

SMILES	Cytotoxicity AML-12 (AML-12 cells)	Cytotoxicity Hep-G2 (HePG2 cells)	hERG (hERG potassium channel)	activity of caspase 3/7 induced by cisplatin (Caspase 3/7; cisplatin 50 μM for 16 hrs)	concentration with significant decrease of caspase activity vs cisplatin alone (p<0.001) (Caspase 3/7; in combination with cisplatin)
N#Cc1c(-c2nccs2)nc(SCc2cccc(C(=O)O)c2)[nH]c1=O [Compound 5]	Not Toxic	Not Toxic	No Activity	–	–
N#Cc1c(-c2cccs2)nc(SCc2cccc(-c3noc(=O)[nH]3)c2)[nH]c1=O [Compound 19]	Not Toxic	Not Toxic	No Activity	–	–
N#Cc1c(-c2ccc(Cl)cc2)nc(SCc2ccc(C(=O)O)cc2)[nH]c1=O [Compound 8]	Not Toxic	Not Toxic	No Activity	–	–
N#Cc1c(-c2cccs2)nc(SCc2cccc(CC(=O)O)c2)[nH]c1=O [Compound 18]	–	–	–	decreases, in significant manner	100 µM
O=C(O)c1cccc(CSc2nc(-c3ccccc3)c(Br)c(=O)[nH]2)c1 [Compound 11]	Not Toxic	Not Toxic	No Activity	–	–
